# From PMC11856108, “Capsaicin (But Not Other Vanillins) Enhances Estrogen Binding to Its Receptor: Implications for Power Sports and Cancers” (Life, 2025)
# Read-outs that look alike come from different tables or passages of the source.
# Columns and labels:
# [1] = biological target: insulin (human recombinant) (Homo sapiens, UniProt P01308); experiment: Binding to insulin by ultraviolet spectroscopy; details: UV spectroscopy
# [2] = Binding to steroid hormone by UV spectroscopy
# Protocol: (§1) UV spectroscopy in a crystal plate was used to investigate whether CAP has specificity for estrogen alone or whether it can bind to other naturally occurring hormones. To start, CAP was dissolved in a 1:1 solution of water to ethanol at 1 mg/mL ( 3.27×10^−3 M ) and then diluted by thirds eight times. Next, the hormones were dissolved in a 1:1 solution of water to ethanol at a 1/100 dilution. An amount of 50 μL of each CAP dilution was added to 3 wells of a crystal plate, with one well serving as the control, with another 50 μL of 1:1 water to ethanol added, and the other two serving as experimental duplicates, with 50 μL of the prepared hormone solution added. Then, two additional wells were prepared to serve as controls: one containing 100 μL of 1:1 water to ethanol and the other containing 50 μL of prepared hormone solution and 50 μL of 1:1 water to ethanol. Finally, the plate was incubated for 1 h and read in a Spectramax UV-VIS scanning spectrophotometer, spanning wavelengths from 190 to 400 nm. Data analysis involved the subtraction of observed absorbance values from expected absorbance values generated from the control wells ([CAP + 1:1 solution] + [hormone + 1:1 solution] − [1:1 solution]) and plotting them as a function of CAP concentration. Because the solvent (1:1 solution of water–ethanol) was used as a control and subtracted from all wells, the resulting data reflected only the absorbances of the solute compounds. Since each compound has a different lambda maximal absorbance, analysis of the resulting data required finding one common wavelength at which the additions and subtractions of the spectra could be carried out and at which the absorbance of each compound was maximized.
# Experiments were also performed to test whether the enhancement or antagonism observed in estradiol binding to the ESR1 might be due to vanilloid compounds binding directly to estradiol or to related steroidal hormones, perhaps protecting them from oxidation or forming a complex that prevented the estradiol binding to its receptor. No vanilloid compound bound to a measurable degree to estradiol or any other steroidal hormone tested.
# insulin receptor (IR) = insulin receptor (IR) (Homo sapiens, UniProt P06213); experiment: Binding to the insulin receptor by ultraviolet spectroscopy; details: UV spectroscopy
# Sequence of insulin receptor (IR) (P06213 28-1382, species assumed): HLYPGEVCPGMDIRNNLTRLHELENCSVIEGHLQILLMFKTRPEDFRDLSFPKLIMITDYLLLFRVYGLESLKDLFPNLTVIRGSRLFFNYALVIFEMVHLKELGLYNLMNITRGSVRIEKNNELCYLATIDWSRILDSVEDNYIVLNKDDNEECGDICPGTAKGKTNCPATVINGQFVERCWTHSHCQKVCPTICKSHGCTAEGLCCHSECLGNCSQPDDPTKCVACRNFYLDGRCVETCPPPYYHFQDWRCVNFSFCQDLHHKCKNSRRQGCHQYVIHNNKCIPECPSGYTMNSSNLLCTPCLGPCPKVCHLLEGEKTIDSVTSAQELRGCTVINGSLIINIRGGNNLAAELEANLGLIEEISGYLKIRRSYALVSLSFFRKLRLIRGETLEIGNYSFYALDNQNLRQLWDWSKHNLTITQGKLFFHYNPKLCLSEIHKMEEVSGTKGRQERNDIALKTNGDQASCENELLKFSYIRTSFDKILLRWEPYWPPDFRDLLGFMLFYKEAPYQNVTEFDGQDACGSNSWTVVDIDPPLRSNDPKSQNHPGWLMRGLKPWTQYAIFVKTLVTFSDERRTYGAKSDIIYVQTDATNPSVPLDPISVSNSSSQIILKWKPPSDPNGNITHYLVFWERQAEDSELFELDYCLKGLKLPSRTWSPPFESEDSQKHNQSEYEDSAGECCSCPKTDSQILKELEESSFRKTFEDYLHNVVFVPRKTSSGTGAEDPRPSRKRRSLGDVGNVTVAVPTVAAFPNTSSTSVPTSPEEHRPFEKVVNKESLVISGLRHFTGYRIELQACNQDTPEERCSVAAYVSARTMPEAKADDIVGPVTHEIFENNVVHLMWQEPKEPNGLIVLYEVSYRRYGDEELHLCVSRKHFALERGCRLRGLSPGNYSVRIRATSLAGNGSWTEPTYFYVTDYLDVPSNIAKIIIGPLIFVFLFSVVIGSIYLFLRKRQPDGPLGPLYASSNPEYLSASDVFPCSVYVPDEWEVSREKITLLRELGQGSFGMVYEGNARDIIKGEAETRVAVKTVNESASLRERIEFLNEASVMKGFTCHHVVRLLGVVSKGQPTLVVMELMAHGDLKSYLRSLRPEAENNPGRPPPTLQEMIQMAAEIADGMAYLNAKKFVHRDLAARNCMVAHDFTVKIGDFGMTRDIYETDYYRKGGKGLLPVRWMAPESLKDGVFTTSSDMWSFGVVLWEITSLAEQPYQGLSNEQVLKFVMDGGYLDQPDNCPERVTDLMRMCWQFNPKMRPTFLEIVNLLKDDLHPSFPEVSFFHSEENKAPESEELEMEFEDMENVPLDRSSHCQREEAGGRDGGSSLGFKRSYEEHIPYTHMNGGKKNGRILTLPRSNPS
# Protocol: as §1
# [17, 19, 20, 21, 22, 23]. […] Because CAP binds to INS, it was possible that it might antagonize INS binding to its receptor. […] Two types of ultraviolet spectroscopy experiments were performed. In one, INS (1 µM) and the IR were kept constant and the concentration of CAP increased from 0.1 µM to 100 µM. In the other, the CAP (25 µM) and IR were kept constant and the concentration of INS increased from 10 nM to 10 µM. In neither experiment was any significant change in the INS binding curve observed.
# CAP did bind to the ESR1 with what appears to be a high affinity (Kd = 0.9 µM) and a lower affinity (Kd = 10 µM) site. […] Other vanilloid compounds also bound to the ESR1 but with lower affinity than CAP (Figure 6). None bound to the IR.
# [3] = biological target: T1, Estrogen receptor alpha (ER alpha) recombinant protein (ESR1) (Homo sapiens, UniProt P03372); experiment: Binding to the estrogen receptor by ultraviolet spectroscopy; details: UV spectroscopy; listed as vanillin
# T1 sequence (P03372 1-595): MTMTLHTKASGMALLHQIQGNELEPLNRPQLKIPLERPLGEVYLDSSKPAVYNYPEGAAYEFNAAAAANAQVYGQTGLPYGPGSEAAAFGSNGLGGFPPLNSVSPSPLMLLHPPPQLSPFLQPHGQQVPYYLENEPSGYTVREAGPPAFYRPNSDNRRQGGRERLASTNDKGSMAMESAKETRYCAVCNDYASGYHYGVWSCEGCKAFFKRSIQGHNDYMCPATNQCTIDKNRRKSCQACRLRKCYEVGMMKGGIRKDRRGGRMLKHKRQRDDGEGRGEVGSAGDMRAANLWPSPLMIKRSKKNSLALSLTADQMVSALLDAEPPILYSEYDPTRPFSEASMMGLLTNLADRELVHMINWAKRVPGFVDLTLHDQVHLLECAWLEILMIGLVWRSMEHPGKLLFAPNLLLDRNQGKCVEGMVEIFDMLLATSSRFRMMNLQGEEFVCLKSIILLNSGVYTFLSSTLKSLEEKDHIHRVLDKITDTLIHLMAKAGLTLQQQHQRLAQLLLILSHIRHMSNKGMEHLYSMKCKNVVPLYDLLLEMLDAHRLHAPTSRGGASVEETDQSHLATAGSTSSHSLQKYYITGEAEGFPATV
# ESR1 = biological target: T2, ESR1 (Homo sapiens, UniProt P03372); experiment: Competitive-binding ELISA of EST-HRP binding to the estrogen receptor
# T2 construct: purchased Invitrogen-Thermofisher
# T2 sequence (P03372 1-595): T1 sequence (P03372 1-595)
# Sequence of insulin (human recombinant) (P01308 25-54 limits assumed): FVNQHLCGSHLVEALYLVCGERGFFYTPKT
# Sequence of insulin (human recombinant) (P01308 90-110 limits assumed): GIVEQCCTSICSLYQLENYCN
structure (smiles),measurement,setting,value
"CC(=O)Nc1ccc(O)cc1 [Acetaminophen, acetaminophen]",binding to insulin (in words),[1],Neither vanillin nor acetaminophen bound significantly to insulin
same,"Binding (Kd) 4-Androstene-3,17-dione",[2],No binding
same,Binding (Kd) 5-Pregnan-3β-OL-2O-one,[2],No binding
same,Binding (Kd) Estradiol,[2],No binding
same,Binding (Kd) Estriol,[2],No binding
same,Binding (Kd) Progesterone,[2],No binding
same,Binding (Kd) Estradiol,[2]; listed as acetaminophen,did not bind directly to estradiol
"COc1cc(C(=O)O)ccc1O [Van Acid, vanillic acid]",Kd,"[1]; Binding (Kd) Insulin, Table 1",4 µM
same,binding to insulin (in words),[1],bound almost as well as capsaicin
same,"Binding (Kd) 4-Androstene-3,17-dione",[2],No binding
same,Binding (Kd) 5-Pregnan-3β-OL-2O-one,[2],No binding
same,Binding (Kd) Estradiol,[2],No binding
same,Binding (Kd) Estriol,[2],No binding
same,Binding (Kd) Progesterone,[2],No binding
same,Binding (Kd) Estradiol,[2]; listed as vanillic acid,did not bind directly to estradiol
"COc1cc(C=O)ccc1O [Vanillin, vanillin]",binding to insulin (in words),[1]; listed as vanillin,Neither vanillin nor acetaminophen bound significantly to insulin
same,binding to the insulin receptor (in words),insulin receptor (IR),did not bind significantly
same,binding to the estrogen receptor (in words),[3],weakly to the estrogen receptor
same,"Binding (Kd) 4-Androstene-3,17-dione",[2],No binding
same,Binding (Kd) 5-Pregnan-3β-OL-2O-one,[2],No binding
same,Binding (Kd) Estradiol,[2],No binding
same,Binding (Kd) Estriol,[2],No binding
same,Binding (Kd) Progesterone,[2],No binding
same,Binding (Kd) Estradiol,[2]; listed as vanillin,did not bind directly to estradiol
same,effect on estradiol (EST-HRP) binding to the estrogen receptor,ESR1,no effect on estradiol binding
same,effect on estradiol (EST-HRP) binding to the estrogen receptor,ESR1; listed as VAN,no significant effect on estradiol binding
C[C@]12CC[C@@H]3c4ccc(O)cc4CC[C@H]3[C@@H]1CC[C@@H]2O [estradiol],binding to the insulin receptor (in words),insulin receptor (IR),did not bind to the IR
